Where “and” joins values, the source holds several entries; their conditions need not be identical. Equal values may be shown once.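 Interpolation was linear, between the two tested concentrations surrounding the appropriate level; five concentrations were tested over 48 hours in 96-well plates. GI50 is the concentration that inhibits growth by half. TGI: concentration producing complete growth inhibition.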
Columns and labels:
Assay in all cases: NCI tumour cell line growth inhibition, 48 h
CCRF-CEM leukemia = system: CCRF-CEM leukemia
DU-145 prostate = system: DU-145 prostate
HOP-92 NSCLC = system: HOP-92 NSCLC
IGROV1 ovarian = system: IGROV1 ovarian
M14 melanoma = system: M14 melanoma
MCF7 breast = system: MCF7 breast
NCI-H460 lung = system: NCI-H460 lung
OVCAR-8 ovarian = system: OVCAR-8 ovarian
SF-295 CNS = system: SF-295 CNS
SK-MEL-28 melanoma = system: SK-MEL-28 melanoma

What does the source list for `COc1cc(N2CCC(N3CCN(C)CC3)CC2)ccc1Nc1ncc(Cl)c(Nc2ccccc2P(C)(C)=O)n1`?
GI50 (CCRF-CEM leukemia): 4.41 µM; TGI (CCRF-CEM leukemia): 98 µM; GI50 (DU-145 prostate): 0.933 µM; TGI (DU-145 prostate): 20.5 µM; GI50 (HOP-92 NSCLC): 0.4 µM; TGI (HOP-92 NSCLC): 2.41 µM; GI50 (IGROV1 ovarian): 0.216 µM; TGI (IGROV1 ovarian): 0.784 µM; GI50 (M14 melanoma): 2.12 µM; TGI (M14 melanoma): > 34 µM; GI50 (MCF7 breast): 0.414 µM; TGI (MCF7 breast): > 100 µM; GI50 (NCI-H460 lung): 2.47 µM; TGI (NCI-H460 lung): > 40 µM; GI50 (OVCAR-8 ovarian): 5.05 µM; TGI (OVCAR-8 ovarian): > 100 µM; GI50 (SF-295 CNS): 2.85 µM; TGI (SF-295 CNS): > 100 µM; GI50 (SK-MEL-28 melanoma): 18.5 µM; TGI (SK-MEL-28 melanoma): > 100 µM

How did the GI50 (CCRF-CEM leukemia) turn out when `Nc1ccccc1NC(=O)c1ccc(CSc2nc(N3CCOCC3)c3cccn3n2)cc1` was run?
The GI50 was 0.246 µM.

And the TGI (CCRF-CEM leukemia)?
Its TGI is over 100 µM.

What about the GI50 (DU-145 prostate) of the same compound?
Its GI50 is 1.63 µM.

What about the TGI (DU-145 prostate) of the same compound?
The TGI was 37.7 µM.

And the GI50 (HOP-92 NSCLC)?
The GI50 was 0.15 µM.

What about the TGI (HOP-92 NSCLC) of the same compound?
Its TGI is 0.991 µM.

And the GI50 (IGROV1 ovarian)?
Its GI50 is 1.18 µM.

And the TGI (IGROV1 ovarian)?
The TGI was over 100 µM.

What about the GI50 (M14 melanoma) of the same compound?
Its GI50 is 0.756 µM.

What about the TGI (M14 melanoma) of the same compound?
The TGI was over 100 µM.

And the GI50 (MCF7 breast)?
Its GI50 is 0.335 µM.

What about the TGI (MCF7 breast) of the same compound?
The TGI was over 100 µM.

And the GI50 (NCI-H460 lung)?
Its GI50 is 0.524 µM.

What about the TGI (NCI-H460 lung) of the same compound?
The TGI was over 100 µM.

And the GI50 (OVCAR-8 ovarian)?
Its GI50 is 0.509 µM.

What about the TGI (OVCAR-8 ovarian) of the same compound?
The TGI was over 100 µM.

And the GI50 (SF-295 CNS)?
The GI50 was 1.6 µM.

And the TGI (SF-295 CNS)?
The TGI was 17.2 µM.

What about the GI50 (SK-MEL-28 melanoma) of the same compound?
The GI50 was 1 µM.

What about the TGI (SK-MEL-28 melanoma) of the same compound?
Its TGI is 31.3 µM.

For `COc1ccc(-c2cc(-c3ccc(Nc4nc(Nc5ccc(Cl)cc5)nc(Nc5ccc(Cl)cc5)n4)cc3)no2)cc1`, which GI50 (CCRF-CEM leukemia) is on record?
The GI50 was 3.27 µM.

What about the TGI (CCRF-CEM leukemia) of the same compound?
Its TGI is 11.6 µM.

What about the GI50 (DU-145 prostate) of the same compound?
Its GI50 is 11.4 µM.

What about the TGI (DU-145 prostate) of the same compound?
Its TGI is 36.3 µM.

What about the GI50 (HOP-92 NSCLC) of the same compound?
Its GI50 is 1.91 µM.

And the TGI (HOP-92 NSCLC)?
Its TGI is 6.26 µM.

And the GI50 (IGROV1 ovarian)?
Its GI50 is 6.3 µM.

What about the TGI (IGROV1 ovarian) of the same compound?
The TGI was 42.8 µM.

What about the GI50 (M14 melanoma) of the same compound?
The GI50 was 16.2 µM.

And the TGI (M14 melanoma)?
The TGI was 53.7 µM.

What about the GI50 (MCF7 breast) of the same compound?
The GI50 was 7.86 µM.

And the TGI (MCF7 breast)?
The TGI was 47.5 µM.

And the GI50 (NCI-H460 lung)?
Its GI50 is 5.58 µM.

What about the TGI (NCI-H460 lung) of the same compound?
The TGI was 25.2 µM.

What about the GI50 (OVCAR-8 ovarian) of the same compound?
Its GI50 is 12.6 µM.

And the TGI (OVCAR-8 ovarian)?
Its TGI is 55.3 µM.

And the GI50 (SF-295 CNS)?
Its GI50 is 11.4 µM.

And the TGI (SF-295 CNS)?
Its TGI is 39.5 µM.

What about the GI50 (SK-MEL-28 melanoma) of the same compound?
The GI50 was 11.7 µM.

And the TGI (SK-MEL-28 melanoma)?
Its TGI is 41.4 µM.

Which results are given for `NC1=NC(=O)N2CC12` (configuration not stated)?
GI50 (CCRF-CEM leukemia): 17.3 µM and 14.3 µM; TGI (CCRF-CEM leukemia): > 100 µM and 58.9 µM and 89.8 µM; GI50 (DU-145 prostate): 240 µM; TGI (DU-145 prostate): 851 µM; GI50 (HOP-92 NSCLC): 70.8 µM; TGI (HOP-92 NSCLC): > 100 µM and 173 µM; GI50 (IGROV1 ovarian): 86.8 µM and 261 µM; TGI (IGROV1 ovarian): > 100 µM and 1100 µM; TGI (M14 melanoma): > 100 µM and 273 µM; GI50 (MCF7 breast): 137 µM; TGI (MCF7 breast): 768 µM; GI50 (NCI-H460 lung): 182 µM; TGI (NCI-H460 lung): > 100 µM and 866 µM; GI50 (OVCAR-8 ovarian): 141 µM; TGI (OVCAR-8 ovarian): > 100 µM and 5000 µM; GI50 (SF-295 CNS): 68.6 µM and 73.1 µM; TGI (SF-295 CNS): > 100 µM and 219 µM; TGI (SK-MEL-28 melanoma): > 100 µM and 196 µM

How did the GI50 (CCRF-CEM leukemia) turn out when `C#C[C@@]1(O)[C@@H](CO)O[C@@H](n2cc(Cl)c3c(N)ncnc32)[C@@H]1O` was run?
The GI50 was 0.248 µM.

And the TGI (CCRF-CEM leukemia)?
The TGI was over 100 µM.

And the GI50 (DU-145 prostate)?
Its GI50 is 0.131 µM.

And the TGI (DU-145 prostate)?
Its TGI is over 52 µM.

What about the GI50 (HOP-92 NSCLC) of the same compound?
The GI50 was 0.454 µM.

What about the TGI (HOP-92 NSCLC) of the same compound?
The TGI was 3.53 µM.

And the GI50 (IGROV1 ovarian)?
The GI50 was 0.145 µM.

What about the TGI (IGROV1 ovarian) of the same compound?
The TGI was 0.475 µM.

And the GI50 (M14 melanoma)?
Its GI50 is 0.177 µM.

And the TGI (M14 melanoma)?
The TGI was 0.585 µM.

And the GI50 (MCF7 breast)?
Its GI50 is 0.0264 µM.

And the TGI (MCF7 breast)?
The TGI was 1.1 µM.

What about the GI50 (NCI-H460 lung) of the same compound?
Its GI50 is under 0.0215 µM.

And the TGI (NCI-H460 lung)?
Its TGI is 0.412 µM.

And the GI50 (OVCAR-8 ovarian)?
Its GI50 is 0.0336 µM.

And the TGI (OVCAR-8 ovarian)?
The TGI was 1.48 µM.

And the GI50 (SF-295 CNS)?
Its GI50 is 0.202 µM.

And the TGI (SF-295 CNS)?
The TGI was 3.2 µM.

And the GI50 (SK-MEL-28 melanoma)?
The GI50 was 0.575 µM.

What about the TGI (SK-MEL-28 melanoma) of the same compound?
The TGI was 71.5 µM.

`CCCCCCCCCCCCCOC(=O)c1c(C)[nH]c(/C=C2\N=C(c3ccc[nH]3)C=C2OC)c1C` was tested. Which GI50 (CCRF-CEM leukemia) did it give?
The GI50 was 0.0303 µM.

And the TGI (CCRF-CEM leukemia)?
Its TGI is over 100 µM.

And the GI50 (DU-145 prostate)?
Its GI50 is 0.0427 µM.

What about the TGI (DU-145 prostate) of the same compound?
The TGI was over 78.9 µM.

And the GI50 (HOP-92 NSCLC)?
The GI50 was 0.0698 µM.

And the TGI (HOP-92 NSCLC)?
The TGI was 0.497 µM.

What about the GI50 (IGROV1 ovarian) of the same compound?
The GI50 was 0.122 µM.

What about the TGI (IGROV1 ovarian) of the same compound?
Its TGI is 30.1 µM.

And the GI50 (M14 melanoma)?
Its GI50 is 0.0178 µM.

What about the TGI (M14 melanoma) of the same compound?
Its TGI is 0.0461 µM.

And the GI50 (MCF7 breast)?
The GI50 was 0.0248 µM.

And the TGI (MCF7 breast)?
Its TGI is over 100 µM.

And the GI50 (NCI-H460 lung)?
Its GI50 is under 0.017 µM.

And the TGI (NCI-H460 lung)?
The TGI was over 100 µM.

What about the GI50 (OVCAR-8 ovarian) of the same compound?
The GI50 was 0.0454 µM.

What about the GI50 (SF-295 CNS) of the same compound?
The GI50 was 1.75 µM.

What about the TGI (SF-295 CNS) of the same compound?
Its TGI is 37.7 µM.

And the GI50 (SK-MEL-28 melanoma)?
The GI50 was 0.994 µM.

What about the TGI (SK-MEL-28 melanoma) of the same compound?
Its TGI is over 52.6 µM.

How did the TGI (CCRF-CEM leukemia) turn out when `NCCCNc1ccc2c(c1)[n+]([O-])c1ccccc1[n+]2[O-]` was run?
The TGI was 91.4 µM.

And the TGI (DU-145 prostate)?
The TGI was 70.8 µM.

And the TGI (HOP-92 NSCLC)?
Its TGI is 62.6 µM.

What about the TGI (IGROV1 ovarian) of the same compound?
Its TGI is 41.5 µM.

And the TGI (M14 melanoma)?
Its TGI is over 100 µM.

And the TGI (MCF7 breast)?
Its TGI is over 100 µM.

What about the TGI (NCI-H460 lung) of the same compound?
Its TGI is 53.6 µM.

And the TGI (OVCAR-8 ovarian)?
Its TGI is over 100 µM.

And the TGI (SF-295 CNS)?
Its TGI is over 100 µM.

And the TGI (SK-MEL-28 melanoma)?
Its TGI is over 100 µM.

`O=C(O)C(=O)Cc1ccc2c(c1)OCO2` was tested. Which TGI (CCRF-CEM leukemia) did it give?
Its TGI is 67.1 µM.

What about the TGI (DU-145 prostate) of the same compound?
The TGI was over 100 µM.

And the TGI (HOP-92 NSCLC)?
The TGI was over 100 µM.

What about the TGI (IGROV1 ovarian) of the same compound?
The TGI was over 100 µM.

And the TGI (M14 melanoma)?
Its TGI is over 100 µM.

And the TGI (MCF7 breast)?
Its TGI is over 100 µM.

And the TGI (NCI-H460 lung)?
Its TGI is over 100 µM.

And the TGI (OVCAR-8 ovarian)?
The TGI was over 100 µM.

What about the TGI (SF-295 CNS) of the same compound?
The TGI was over 100 µM.

What about the TGI (SK-MEL-28 melanoma) of the same compound?
Its TGI is over 100 µM.

From PubChem BioAssay (NCI)
